Results published in patent US6348309B1, “Process for inactivating viruses in blood and blood products” (priority 1989, dated 2002).
Entries after “also recorded” stand apart in the source; their conditions may differ.

Columns and labels:
[1] = test system: Eastern equine encephalomyelitis (EEE) virus; settings: cited from earlier work
[2] = 1 to 2 mg/kg of body weight; cited from earlier work
[3] = test system: adenovirus; test: Photodynamic treatment of adenovirus with pre-incubation in the dark, titrated on FL cells (Example 7); assay type: cell-based; settings: TB instead of MB, same conditions

In the case of `Cc1cc2nc3ccc(N(C)C)cc3[s+]c2cc1N.[Cl-]` [TB, toluidine blue], the “inactivation of EEE virus in plasma” value [1] is listed as “effectively inactivated; also recorded: failed to inactivate the virus completely”, the “side effects in therapeutic use” value [2] is listed as “without any significant side effects” and the “effect of photodynamic treatment on virus titer” value [3] is listed as “not reduced”.
